Where two headings read alike, the source gives them in different places.
Columns and labels:
[1] = system: SDMA in human colon cancer cell line HCT116; assay: Cell symmetric dimethylarginine (SDMA) test, In-cell Western, HCT116 (MTAP wild-type); type: cell-based; details: Homo sapiens, HCT-116, 96 h
In short: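 SDMA level, an indirect readout of cellular MAT2A inhibition, measured by In-cell Western as background-subtracted 800/700 nm signal against DRAQ5. Cells exposed 4 days to six 1:4-diluted doses from 6 μM; inhibition relative to DMSO, IC50 from sigmoidal fit.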

DOHH-2 cell strain = assay: Tumor cell proliferation inhibition assay (CellTiter-Glo), DOHH-2; type: cell-based; details: Homo sapiens, 120 h, DOHH-2 cells, 5-day treatment
Experimental: After the HCT116-MTAP-knockout (−/−) cell strain, the HCT116-MTAP wild-type(+/+)-cell strain, the DOHH-2 cell strain, or the Hut-78 cell strain was treated with the test compound for 5 days, the ATP level was measured using a CellTiter-Glo kit of Promega to evaluate the inhibition of the test compound against the growth of the tumor cell strain.
In the present application, the HCT116-MTAP-knockout (−/−) cell strain, the HCT116-MTAP wild-type (+/+)-cell strain, the DOHH-2 cell strain, or the Hut-78 cell strain was seeded into a 96-well cell culture plate at an appropriate cell density. After 24 h, the cells were treated using the test compounds diluted 1:3 fold at the highest concentration of 10 μM for 10 gradients, and a DMSO treatment group was set up separately. The cells were cultured in a 37° C./5% CO2 incubator for 5 days.

[2] = system: SDMA in HCT116-MTAP-knockout cell line; assay: Cell symmetric dimethylarginine (SDMA) test, In-cell Western, HCT116-MTAP-knockout; type: cell-based; details: Homo sapiens, 96 h
[3] = target: MAT2A recombinant protein (Homo sapiens, UniProt P31153); assay: MAT2A inhibitory activity (malachite green colorimetric enzyme assay); type: biochemical
In short: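 Compounds tested over 10 points, 3-fold dilutions, top final concentration 1000 nM. Enzyme reaction: MAT2A, L-methionine, ATP, room temperature, 60 min, in HEPES pH 7.5 buffer with KCl, MgCl2 and DTT; inorganic phosphate read colorimetrically (malachite green, A630). Inhibition vs log concentration fitted for IC50.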

[4] = Pharmacokinetic test in mice (IV and PO); type: in vivo; details: mouse, plasma, BALB/c mice; for half-life: read-out: T½ (converted)
Hut-78 cell strain = assay: Tumor cell proliferation inhibition assay (CellTiter-Glo), Hut-78; type: cell-based; details: Homo sapiens, HuT78, 120 h, Hut-78 cells, 5-day treatment
In short: (§1)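 Cells were seeded, left 24 h, then exposed to test compounds in a 10-point, 1:3 dilution series from 10 μM top concentration alongside a DMSO group. After 5 days at 37° C./5% CO2, growth inhibition was judged from ATP level by CellTiter-Glo luminescence.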

[5] = system: HCT116-MTAP-knockout (−/−) cell strain; assay: Tumor cell proliferation inhibition assay (CellTiter-Glo), HCT116-MTAP-knockout (-/-); type: cell-based; details: Homo sapiens, 120 h, HCT116-MTAP-knockout (−/−) cells, 5-day treatment
In short: as §1

[6] = system: HCT116-MTAP wild-type (+/+)-cell strain; assay: Tumor cell proliferation inhibition assay (CellTiter-Glo), HCT116-MTAP wild-type (+/+); type: cell-based; details: Homo sapiens, 120 h, HCT116-MTAP wild-type (+/+) cells, 5-day treatment
In short: as §1

[7] = IC50 score class, read-out: Cell 96 h SDMA Inhibition (HCT116-MTAP+/+) (score)
[8] = IC50 score, read-out: Tumor cell 5-day relative growth inhibition (DOHH-2) (nM), score
[9] = IC50 value, read-out: Tumor cell 5-day relative growth inhibition (DOHH-2)
[10] = IC50 score class, read-out: Cell 96 h SDMA Inhibition (HCT116-MTAP−/−) (score)
[11] = IC50 score class, read-out: MAT2A Inhibition (score)
[12] = read-out: Cell 96 h SDMA inhibition (HCT116-MTAP+/+)
[13] = read-out: Cell 96 h SDMA Inhibition (HCT116-MTAP−/−)
[14] = IC50 score, read-out: Tumor cell 5-day relative growth inhibition (Hut-78) (nM), score
[15] = IC50 value, read-out: Tumor cell 5-day relative growth inhibition (Hut-78)
[16] = IC50 score, read-out: Tumor cell 5-day relative growth inhibition (HCT116-MTAP−/−) (nM), score
[17] = IC50 value, read-out: Tumor cell 5-day relative growth inhibition (HCT116-MTAP−/−)
[18] = IC50 score, read-out: Tumor cell 5-day relative growth inhibition (HCT116-MTAP+/+) (nM), score
[19] = IC50 value, read-out: Tumor cell 5-day relative growth inhibition (HCT116-MTAP+/+)

Chain of MAT2A recombinant protein (P31153 whole entry): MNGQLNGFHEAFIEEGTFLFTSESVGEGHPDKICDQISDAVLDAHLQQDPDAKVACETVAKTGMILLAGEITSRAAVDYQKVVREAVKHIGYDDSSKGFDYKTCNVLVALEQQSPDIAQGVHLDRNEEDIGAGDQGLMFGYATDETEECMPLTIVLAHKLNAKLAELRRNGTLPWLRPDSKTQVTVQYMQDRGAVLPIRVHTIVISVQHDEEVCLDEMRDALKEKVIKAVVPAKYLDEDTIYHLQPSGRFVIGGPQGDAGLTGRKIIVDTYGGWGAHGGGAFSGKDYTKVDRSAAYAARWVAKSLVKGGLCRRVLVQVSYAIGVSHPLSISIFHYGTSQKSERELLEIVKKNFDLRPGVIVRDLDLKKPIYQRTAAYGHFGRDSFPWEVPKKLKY

CCn1cc2c(n1)c(=O)n(-c1cncc(F)c1)c1cc(Cl)ccc21 [Compound B14]
IC50 [1, 7]: 1000 to 3000 nM | IC50 (DOHH-2 cell strain; [8]): ≥ 2000 nM | IC50 (DOHH-2 cell strain; [9]): 6680 nM | IC50 [2, 10]: 1000 to 3000 nM | IC50 [3, 11]: < 100 nM | IC50 ([3]; read-out: MAT2A Inhibition): 66.9 nM

Cc1c2c(nn1C)c(=O)n(-c1cccnc1)c1cc(Cl)ccc21 [Compound B16]
IC50 [1, 7]: 200 to 1000 nM | IC50 [1, 12]: 636 nM | IC50 (DOHH-2 cell strain; [8]): 500 to 2000 nM | IC50 (DOHH-2 cell strain; [9]): 811 nM | IC50 [2, 10]: < 200 nM | IC50 [2, 13]: 63.6 nM | IC50 [3, 11]: < 100 nM | IC50 ([3]; read-out: MAT2A Inhibition): 26.8 nM

Cn1cc2c(n1)c(=O)n(-c1cccnc1)c1cc(C3CC3)ccc21 [Compound B70]
IC50 [1, 7]: 1000 to 3000 nM | IC50 [1, 12]: 1550 nM | IC50 (DOHH-2 cell strain; [8]): 500 to 2000 nM | IC50 (DOHH-2 cell strain; [9]): 1930 nM | IC50 [2, 10]: 200 to 1000 nM | IC50 [2, 13]: 375 nM

CCn1nc2c(=O)n(-c3cccnc3)c3cc(Cl)ccc3c2c1Cl [Compound B20]
IC50 [1, 7]: > 3000 nM | IC50 [1, 12]: 5150 nM | IC50 (DOHH-2 cell strain; [8]): ≥ 2000 nM | IC50 (DOHH-2 cell strain; [9]): 2360 nM | IC50 [2, 10]: 200 to 1000 nM | IC50 [2, 13]: 521 nM | IC50 [3, 11]: < 100 nM | IC50 ([3]; read-out: MAT2A Inhibition): 37.2 nM

CCn1cc2c(n1)c(=O)n(-c1cccnc1C(F)(F)F)c1cc(Cl)ccc21 [Compound B32]
IC50 [1, 7]: 1000 to 3000 nM | IC50 [1, 12]: 2260 nM | IC50 (DOHH-2 cell strain; [8]): ≥ 2000 nM | IC50 (DOHH-2 cell strain; [9]): 2700 nM | IC50 [2, 10]: < 200 nM | IC50 [2, 13]: 53.9 nM | IC50 [3, 11]: < 100 nM | IC50 ([3]; read-out: MAT2A Inhibition): 43.5 nM

Cc1ncccc1-n1c(=O)c2nn(C)cc2c2ccc(C3CC3)cc21 [Compound B74]
IC50 [1, 7]: 200 to 1000 nM | IC50 [1, 12]: 261 nM | IC50 (DOHH-2 cell strain; [8]): < 500 nM | IC50 (DOHH-2 cell strain; [9]): 340 nM | IC50 [2, 10]: < 200 nM | IC50 [2, 13]: 19.3 nM | IC50 [3, 11]: < 100 nM | IC50 ([3]; read-out: MAT2A Inhibition): 44.3 nM

Cc1c2c(nn1C)c(=O)n(-c1cccnc1)c1nc(C(F)(F)F)ccc21 [Compound B198]
AUC ([4]; IV 2 mg/kg): 8.7 µM·h | clearance ([4]; IV 2 mg/kg): 10.7 mL/min/kg | bioavailability ([4]; IV 2 mg/kg, PO 10 mg/kg): 150% | half-life ([4]; IV 2 mg/kg): 40.9 min | Vd ([4]; IV 2 mg/kg, read-out: Vz): 0.6 L/kg | AUC ([4]; PO 10 mg/kg): 65.2 µM·h | half-life ([4]; PO 10 mg/kg): 55.1 min | IC50 [1, 7]: 200 to 1000 nM | IC50 [1, 12]: 567 nM | IC50 (Hut-78 cell strain; [14]): < 500 nM | IC50 (Hut-78 cell strain; [15]): 40.2 nM | IC50 [5, 16]: < 500 nM | IC50 [5, 17]: 31.5 nM | IC50 [2, 10]: < 200 nM | IC50 [2, 13]: 48.5 nM | IC50 [3, 11]: < 100 nM | IC50 ([3]; read-out: MAT2A Inhibition): 17.1 nM | IC50 [6, 18]: 500 to 2000 nM | IC50 [6, 19]: 745 nM

Cn1nc2c(=O)n(-c3cccnc3)c3cc(Cl)ccc3c2c1C(F)F [Compound B27]
IC50 [1, 7]: > 3000 nM | IC50 [1, 12]: > 3000 nM | IC50 (DOHH-2 cell strain; [8]): ≥ 2000 nM | IC50 (DOHH-2 cell strain; [9]): 11700 nM | IC50 [2, 10]: 1000 to 3000 nM | IC50 [2, 13]: 1280 nM | IC50 [3, 11]: < 100 nM | IC50 ([3]; read-out: MAT2A Inhibition): 77 nM

O=c1c2nn(CCO)cc2c2ccc(Cl)cc2n1-c1cccnc1 [Compound B46]
IC50 [1, 7]: > 3000 nM | IC50 [1, 12]: 19400 nM | IC50 (DOHH-2 cell strain; [8]): ≥ 2000 nM | IC50 (DOHH-2 cell strain; [9]): 6030 nM | IC50 [2, 10]: 200 to 1000 nM | IC50 [2, 13]: 236 nM

CCn1cc2c(n1)c(=O)n(-c1cnccc1C)c1cc(Cl)ccc21 [Compound B51]
IC50 [1, 7]: > 3000 nM | IC50 [1, 12]: > 10000 nM | IC50 (DOHH-2 cell strain; [8]): ≥ 2000 nM | IC50 (DOHH-2 cell strain; [9]): 7690 nM | IC50 [2, 10]: > 3000 nM | IC50 [2, 13]: 8520 nM | IC50 [3, 11]: < 100 nM | IC50 ([3]; read-out: MAT2A Inhibition): 40.8 nM

Cn1cc2c(n1)c(=O)n(-c1cccnc1)c1nc(C3CC3)ccc21 [Compound B71]
IC50 [1, 7]: 1000 to 3000 nM | IC50 [1, 12]: 1270 nM | IC50 (DOHH-2 cell strain; [8]): 500 to 2000 nM | IC50 (DOHH-2 cell strain; [9]): 1290 nM | IC50 [2, 10]: 200 to 1000 nM | IC50 [2, 13]: 203 nM

Cc1ncccc1-n1c(=O)c2n[nH]cc2c2ccc(C(F)(F)F)nc21 [Compound B96]
IC50 [1, 7]: < 200 nM | IC50 [1, 12]: 158 nM | IC50 (Hut-78 cell strain; [14]): < 500 nM | IC50 (Hut-78 cell strain; [15]): 27.2 nM | IC50 [5, 16]: < 500 nM | IC50 [5, 17]: 5.14 nM | IC50 [2, 10]: < 200 nM | IC50 [2, 13]: 5.2 nM | IC50 [3, 11]: < 100 nM | IC50 ([3]; read-out: MAT2A Inhibition): 29.4 nM | IC50 [6, 18]: < 500 nM | IC50 [6, 19]: 293 nM

CCn1cc2c(n1)c(=O)n(-c1cccc(C#N)c1)c1cc(Cl)ccc21 [Compound B9]
IC50 [1, 7]: 1000 to 3000 nM | IC50 [1, 12]: 2350 nM | IC50 (DOHH-2 cell strain; [8]): 500 to 2000 nM | IC50 (DOHH-2 cell strain; [9]): 1090 nM | IC50 [2, 10]: 200 to 1000 nM | IC50 [2, 13]: 328 nM

CCn1cc2c(n1)c(=O)n(Cc1c[nH]cn1)c1cc(Cl)ccc21 [Compound B18]
IC50 (DOHH-2 cell strain; [8]): ≥ 2000 nM | IC50 (DOHH-2 cell strain; [9]): > 2000 nM | IC50 [2, 10]: > 3000 nM | IC50 [2, 13]: 8410 nM | IC50 [3, 11]: 100 to 1000 nM | IC50 ([3]; read-out: MAT2A Inhibition): 149 nM

CCn1cc2c(n1)c(=O)n(-c1cccc(O)c1)c1cc(Cl)ccc21 [Compound B8]
IC50 [1, 7]: 1000 to 3000 nM | IC50 [1, 12]: 2100 nM | IC50 (DOHH-2 cell strain; [8]): 500 to 2000 nM | IC50 (DOHH-2 cell strain; [9]): 1000 nM | IC50 [2, 10]: 200 to 1000 nM | IC50 [2, 13]: 271 nM

CCn1cc2c(n1)c(=O)n(-c1cnccn1)c1cc(Cl)ccc21 [Compound B6]
IC50 [1, 7]: 200 to 1000 nM | IC50 (DOHH-2 cell strain; [8]): ≥ 2000 nM | IC50 (DOHH-2 cell strain; [9]): 16900 nM | IC50 [2, 10]: > 3000 nM | IC50 [2, 13]: 3570 nM

O=c1c2nn(CC3CC3)cc2c2ccc(C(F)(F)F)nc2n1-c1cccnc1 [Compound B199]
IC50 [1, 7]: 200 to 1000 nM | IC50 [1, 12]: 899 nM | IC50 (Hut-78 cell strain; [14]): < 500 nM | IC50 (Hut-78 cell strain; [15]): 323 nM | IC50 [5, 16]: < 500 nM | IC50 [5, 17]: 181 nM | IC50 [2, 10]: < 200 nM | IC50 [2, 13]: 184 nM | IC50 [3, 11]: < 100 nM | IC50 ([3]; read-out: MAT2A Inhibition): 53.7 nM | IC50 [6, 18]: ≥ 2000 nM | IC50 [6, 19]: 53800 nM

— US20240391923A1, “METHIONINE ADENOSYLTRANSFERASE 2A INHIBITOR FOR TREATING MTAP DELETION-TYPE CANCER” (SUZHOU GENHOUSE BIO CO., LTD., priority 2022, published 2024)
